From PMC6661771, “Indole hybridized diazenyl derivatives: synthesis, antimicrobial activity, cytotoxicity evaluation and docking studies” (BMC Chemistry, 2019)
Converted amounts (≈) assume the structure as drawn.

Columns and labels:
B. subtilis [1] = assay: Minimum bactericidal concentration (MBC); assay type: cell-based; conditions: Bacillus subtilis
S. aureus [2] = assay: MIC by tube dilution method; assay type: cell-based; conditions: Staphylococcus aureus, 24 h at 37 °C, read-out: MIC
S. aureus [3] = assay: Minimum bactericidal concentration (MBC); assay type: cell-based; conditions: Staphylococcus aureus
S. enterica [4] = assay: Minimum bactericidal concentration (MBC); assay type: cell-based; conditions: Salmonella enterica; S. enterica; MBC; read-out: MBC/MFC
Method: After MIC assessment, the indole derivatives (DS1–DS21), were additionally evaluated for MBC and MFC values. […] The 10–15 ml of nutrient agar and Sabouraud dextrose agar was added to the petri plates for bacterial and fungal samples respectively with gentle shaking of plates in order to mix the culture throughout the media. Allowed the media to solidify. The petri plates were then incubated for the predefined time and temperature as referenced already for bacterial and fungal cultures respectively. The plates were then investigated visually for the development of microbial growth. The MBC and MFC were stated as the minimum concentration of the compounds in aliquots showing no visual growth after incubation.

B. subtilis [5] = assay: MIC by tube dilution method; assay type: cell-based; conditions: Bacillus subtilis, 24 h at 37 °C, read-out: MIC
A. niger [6] = assay: Minimum fungicidal concentration (MFC); assay type: cell-based; conditions: Aspergillus niger, read-out: MBC/MFC
E. coli [7] = assay: Minimum bactericidal concentration (MBC); assay type: cell-based; conditions: Escherichia coli
E. coli [8] = assay: MIC by tube dilution method; assay type: cell-based; conditions: Escherichia coli, 24 h, 24 h at 37 °C, read-out: MIC
K. pneumonia [9] = assay: MIC by tube dilution method; assay type: cell-based; conditions: Klebsiella pneumoniae, 24 h, 24 h at 37 °C, read-out: MIC
A. niger [10] = assay: MIC by tube dilution method; assay type: cell-based; conditions: Aspergillus niger, 168 h, 7 days at 25 °C, read-out: MIC
S. enterica [11] = assay: MIC by tube dilution method; assay type: cell-based; conditions: Salmonella enterica, 24 h, 24 h at 37 °C, read-out: MIC
A. fumigatus [12] = assay: MIC by tube dilution method; assay type: cell-based; conditions: Aspergillus fumigatus, 168 h, 7 days at 25 °C, read-out: MIC
A. fumigatus [13] = assay: Minimum fungicidal concentration (MFC); assay type: cell-based; conditions: Aspergillus fumigatus, read-out: MBC/MFC
K. pneumonia [14] = assay: Minimum bactericidal concentration (MBC); assay type: cell-based; conditions: Klebsiella pneumoniae

| SMILES | MBC (B. subtilis [1]) [µg/mL] | MIC (S. aureus [2]) [µg/mL] | MBC (S. aureus [3]) [µg/mL] | melting point [°C] | MBC (S. enterica [4]) [µg/mL] | MIC (B. subtilis [5]) [µg/mL] | MFC (A. niger [6]) [µg/mL] | MBC (E. coli [7]) [µg/mL] | MIC (E. coli [8]) [µg/mL] | MIC (K. pneumonia [9]) [µg/mL] | MIC (A. niger [10]) [µg/mL] | MIC (S. enterica [11]) [µg/mL] | MIC (A. fumigatus [12]) [µg/mL] | MFC (A. fumigatus [13]) [µg/mL] | MBC (K. pneumonia [14]) [µg/mL] |
| --- | --- | --- | --- | --- | --- | --- | --- | --- | --- | --- | --- | --- | --- | --- | --- |
| C/C(=N/c1ccc(F)cc1)c1ccc(/N=N\c2c[nH]c3ccc([N+](=O)[O-])cc23)cc1 [DS-16, (Z)-4-Fluoro-N-(1-(4-((Z)-(5-nitro-1H-indol-3-yl)diazenyl)phenyl)ethylidene)aniline] | 125 (≈ 311 µM) | 62.5 (≈ 156 µM) | 125 (≈ 311 µM) | 150 to 152 | 62.5 (≈ 156 µM) | 31.2 (≈ 77.9 µM) | 125 (≈ 311 µM) | 62.5 (≈ 156 µM) | 15.6 (≈ 38.9 µM) | 7.81 (≈ 19.5 µM) | 62.5 (≈ 156 µM) | 62.5 (≈ 156 µM) | 31.2 (≈ 77.9 µM) | 125 (≈ 311 µM) | 31.2 (≈ 77.9 µM) |
| C/C(=N\Cc1ccco1)c1ccc(/N=N/c2c[nH]c3ccccc23)cc1 [DS-1, (E)-N-(2-Furylmethyl)-1-[4-[(E)-1H-indol-3-ylazo]phenyl]ethanimine] | 125 (≈ 365 µM) | 62.5 (≈ 183 µM) | 125 (≈ 365 µM) | 315 to 320 | 62.5 (≈ 183 µM) | 62.5 (≈ 183 µM) | 125 (≈ 365 µM) | 125 (≈ 365 µM) | 15.6 (≈ 45.6 µM) | 3.9 (≈ 11.4 µM) | 125 (≈ 365 µM) | 62.5 (≈ 183 µM) | 62.5 (≈ 183 µM) | 125 (≈ 365 µM) | – |
| CC(=O)NS(=O)(=O)c1ccc(/N=C(/C)c2ccc(/N=N\c3c[nH]c4ccc([N+](=O)[O-])cc34)cc2)cc1 [DS-15, N-((4-((Z)-(1-(4-((Z)-(5-Nitro-1H-indol-3-yl)diazenyl)phenyl)ethylidene)amino)phenyl)sulfonyl)acetamide] | 62.5 (≈ 124 µM) | 125 (≈ 248 µM) | 31.2 (≈ 61.9 µM) | 110 to 115 | 31.2 (≈ 61.9 µM) | 31.2 (≈ 61.9 µM) | 125 (≈ 248 µM) | 125 (≈ 248 µM) | 15.6 (≈ 31 µM) | 3.9 (≈ 7.73 µM) | 125 (≈ 248 µM) | 31.2 (≈ 61.9 µM) | 62.5 (≈ 124 µM) | 125 (≈ 248 µM) | 31.2 (≈ 61.9 µM) |
| OC(Cn1cncn1)(Cn1cncn1)c1ccc(F)cc1F [FLU, fluconazole, reference compound] | – | – | – | – | – | – | 125 (≈ 408 µM) | – | – | – | 31.2 (≈ 102 µM) | – | 7.81 (≈ 25.5 µM) | 125 (≈ 408 µM) | – |
| C/C(=N/c1ccc(S(=O)(=O)Nc2ccccn2)cc1)c1ccc(/N=N\c2c[nH]c3ccccc23)cc1 [DS-11, 4-((Z)-(1-(4-((Z)-(1H-Indol-3-yl)diazenyl)phenyl)ethylidene)amino)-N-(pyridin-2-yl)benzenesulfonamide] | 125 (≈ 253 µM) | 31.2 (≈ 63.2 µM) | 62.5 (≈ 126 µM) | 135 to 140 | 125 (≈ 253 µM) | 31.2 (≈ 63.2 µM) | 125 (≈ 253 µM) | 62.5 (≈ 126 µM) | 3.9 (≈ 7.89 µM) | 15.6 (≈ 31.6 µM) | 125 (≈ 253 µM) | 62.5 (≈ 126 µM) | 62.5 (≈ 126 µM) | 125 (≈ 253 µM) | 31.2 (≈ 63.2 µM) |
| C/C(=N/c1ncccn1)c1ccc(/N=N\c2c[nH]c3ccccc23)cc1 [DS-17, (Z)-N-(1-(4-((Z)-(1H-Indol-3-yl)diazenyl)phenyl)ethylidene)pyrimidin-2-amine] | 62.5 (≈ 184 µM) | 62.5 (≈ 184 µM) | 62.5 (≈ 184 µM) | 275 to 280 | 62.5 (≈ 184 µM) | 125 (≈ 367 µM) | 125 (≈ 367 µM) | 15.6 (≈ 45.9 µM) | 3.9 (≈ 11.5 µM) | 7.81 (≈ 22.9 µM) | 62.5 (≈ 184 µM) | 62.5 (≈ 184 µM) | 31.2 (≈ 91.8 µM) | 125 (≈ 367 µM) | 15.6 (≈ 45.9 µM) |
